From ChEMBL document CHEMBL2331247, “Anti-inflammatory norditerpenoids from the soft coral Sinularia maxima” (Bioorg Med Chem Lett, 2013) come the findings set out here.

Broadly, the IC50 is the concentration at which inhibition is half-maximal.

Holding throughout (assay type): functional
The nature of test [1]: Antiinflammatory activity against in C57BL/6 mouse BMDC assessed as inhibition of LPS-stimulated TNFalpha production compound pre-incubated for 1 hr before LPS challenge by ELISA.
Test [2] can be described thus: Antiinflammatory activity against in C57BL/6 mouse BMDC assessed as inhibition of LPS-stimulated IL12 production compound pre-incubated for 1 hr before LPS challenge by ELISA. For orientation: ELISA stands for enzyme-linked immunosorbent assay.
The nature of test [3]: Antiinflammatory activity against in C57BL/6 mouse BMDC assessed as inhibition of LPS-stimulated IL6 production compound pre-incubated for 1 hr before LPS challenge by ELISA.

As to `C=C(C)[C@H]1CCC2=C[C@@H](C[C@@]3(C)CC(=O)[C@H](CC(=O)C1)O3)OC2=O`, the IC50 in test [1], in test [2] and in test [3] was greater than 100 µM throughout.
Turning to `C=C(C)[C@@H]1CC(=O)CC2=C(C1)[C@]1(O)C(=O)O[C@@H]3C[C@](C)(O)[C@H](C2=O)[C@@H]31`, the concentration for half-maximal inhibition (IC50) in test [1], in test [2] and in test [3] was greater than 100 µM throughout.
On to `C=C(C)[C@@H]1CC(=O)C[C@@H]2O[C@](C)(CC2=O)C[C@@H]2C=C(C(=O)O2)[C@H](OC)C1`, for which the IC50 in test [1] was greater than 100 µM; in test [2], 5.3 µM; in test [3], 13.1 µM.
For `C=C(C)[C@@H]1CC(=O)[C@H]2[C@H](C1)[C@@H]1C(=O)O[C@@H]3C[C@@]4(C)O[C@H]2C(=O)[C@@H]4[C@H]13` [INELEGANOLIDE], the IC50 in test [1], in test [2] and in test [3] was greater than 100 µM in each case.
For the compound `C=C(C)[C@H]1C/C=C(\C(=O)OC)CC(=O)C[C@@]2(C)CC(=O)[C@@H](CC(=O)C1)O2` [NORCEMBRENE 5], the concentration for half-maximal inhibition (IC50) in test [1], in test [2] and in test [3] was greater than 100 µM in each case.
`C[S+]([O-])c1ccc(-c2nc(-c3ccc(F)cc3)c(-c3ccncc3)[nH]2)cc1` (centres undefined) [SB-203580]: the IC50 came to 7.37 µM in test [1], 5.67 µM in test [2] and 3.56 µM in test [3].
On the same counts, the results for `C=C(C)[C@@H]1CC(=O)CC2=C(C1)[C@@H]1C(=O)O[C@@H]3C[C@](C)(O)[C@H](C2=O)[C@H]13` [SCABROLIDE A] are greater than 100 µM, 23.5 µM and 69.9 µM.
Regarding `C=C(C)[C@@H]1CC(=O)CC2=C(C1)[C@@H]1C(=O)O[C@@H]3CC(C)=C(C2=O)[C@H]13` [YONAROLIDE], the IC50 in test [1], in test [2] and in test [3] was greater than 100 µM in each case.
